Assay results as given in patent US20260191924A1, “METHODS AND COMPOSITIONS FOR TREATING VIRAL INFECTIONS” (DST Pharma, Inc., priority 2020, published 2026).

Tests used:
FCV F9 [1] = test: Effect of 5,7,3′,4′-tetrarydroxyflavon-3-ol C4-C8 dimers on FCV F9 infection of CRFK cells; type: cell-based, feline calicivirus (cat kidney CRFK cells); details: 0.1% dimers, added before, with or after virus (FIG. 6)
Method: 50 μl of virus was added to 450 μl complete EMEM to create a 10^−1 viral mix. A series of dilutions made from this mix up to 10^−8. Virus was added to all wells by loading 250 μl from each dilution to the designated wells. 3 well repeats were prepared. Purified 5, 7, 3′, 4′-tetrarydroxyflavon-3-ol C4-C8 dimers was diluted to 0.1% in complete EMEM.
For experiments in which 5, 7, 3′, 4′-tetrarydroxyflavon-3-ol C4-C8 dimers was added before the virus, 5, 7, 3′, 4′-tetrarydroxyflavon-3-ol C4-C8 dimers was diluted to 0.1% using MM (1:100), added to cells and incubated for 1 hour before the virus was added to the cells.
For experiments in which 5, 7, 3′, 4′-tetrarydroxyflavon-3-ol C4-C8 dimers was added simultaneously with the virus, the virus was diluted in 0.1% purified complete EMEM, added to wells, incubated for 1 hour, then complete EMEM was added to the wells.
For experiments in which 5, 7, 3′, 4′-tetrarydroxyflavon-3-ol C4-C8 dimers was added after viral infection, viral dilutions were added to wells, incubated for 1 hour, 0.1% complete EMEM was added to the wells. The medium was changed to complete EMEM after 60 minutes.

FCV F9 [2] = test: Effect of quercetin on FCV F9 infection of CRFK cells; type: cell-based, feline calicivirus (cat kidney CRFK cells); details: 0.1% quercetin, added 1 hour before, with, or 1 hour after virus (FIG. 4)
Method: 50 μl of the virus was added to 450 μl HBSS making a 10^−1 viral titer mix. A series of dilutions made from this mix up to 10^−8. Virus was added to all wells by loading 250 μl from each dilution to the designated wells, same as for viral titer. 3 well repeats were prepared. Quercetin was prepared at 10% quercetin in DMSO.
For experiments in which quercetin was added before viral infection, the quercetin was diluted to 0.1% using MM (1:100), added to cells, and incubated for 1 hour.
For experiments in which quercetin was added at the same time as viral infection, the virus was diluted in 0.1% quercetin MM/DMSO, added to wells, incubated for 1 hour, and then MM was added.
For experiments in which quercetin was added after viral infection, viral dilutions were added to the cells, incubated for 1 hour, then 0.1% quercetin in MM/DMSO was added. The medium was changed to MM after 60 minutes.

Oc1cc(O)c2c(c1)OC(c1ccc(O)c(O)c1)C(O)C2c1c(O)cc(O)c2c1OC(c1ccc(O)c(O)c1)C(O)C2 (centres unmarked) [5,7, 3′, 4′-tetrahydroxyflavan-3-ol C4-C8 dimers]
effect against FCV infection (FCV F9 [1]): effective against FCV infection comparable to quercetin and better than rutin

O=c1c(O)c(-c2ccc(O)c(O)c2)oc2cc(O)cc(O)c12 [quercetin, 3, 3′, 4′, 5,7-pentahydroxyfivanone]
inhibition of FCV F9 infection of CRFK cells (FCV F9 [2]): significantly inhibited
